Columns and labels:
AtPQT11/CYP86A4 = target: T1, AtPQT11/CYP86A4 (Arabidopsis thaliana, UniProt Q9LMM1); assay type: biochemical; settings: 2 mM NADPH in excess; 25 mM phosphate pH 7.0; 27 °C; N-demethylation
T1 sequence (Q9LMM1 1-554): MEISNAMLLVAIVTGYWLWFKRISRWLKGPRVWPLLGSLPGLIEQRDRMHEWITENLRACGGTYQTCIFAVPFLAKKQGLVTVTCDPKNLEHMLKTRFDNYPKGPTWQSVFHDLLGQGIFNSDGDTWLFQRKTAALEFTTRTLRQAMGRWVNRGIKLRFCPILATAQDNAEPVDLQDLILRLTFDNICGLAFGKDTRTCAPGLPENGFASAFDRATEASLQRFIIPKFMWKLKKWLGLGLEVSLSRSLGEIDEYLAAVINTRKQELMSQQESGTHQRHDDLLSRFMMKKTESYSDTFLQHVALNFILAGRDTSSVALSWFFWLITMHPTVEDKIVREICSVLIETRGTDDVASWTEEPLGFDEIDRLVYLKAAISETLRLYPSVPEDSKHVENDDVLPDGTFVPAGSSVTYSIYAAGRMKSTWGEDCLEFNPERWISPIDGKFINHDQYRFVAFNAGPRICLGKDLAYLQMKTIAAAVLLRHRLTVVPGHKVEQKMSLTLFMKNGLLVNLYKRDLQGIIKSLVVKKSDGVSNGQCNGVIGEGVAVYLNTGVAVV

purified protein = substrate: NC(=O)C1=CN([C@@H]2O[C@H](COP(=O)(O)OP(=O)(O)OC[C@H]3O[C@@H](n4cnc5c(N)ncnc54)[C@H](OP(=O)(O)O)[C@@H]3O)[C@@H](O)[C@H]2O)C=CC1; test: purified protein; assay type: biochemical, Arabidopsis thaliana; settings: pH 7.0; 27.0 °C; varied: cofactor

Q: How did the Km (AtPQT11/CYP86A4) turn out when `C[n+]1ccc(-c2cc[n+](C)cc2)cc1` [paraquat, 1,1’-dimethyl-4,4’-bipyridynium dichloride] was run?
A: The Km was 1.34 µM.

B1: AtPQT11/CYP86A4 (Arabidopsis thaliana) (protein)
chain: T1 sequence (Q9LMM1 1-554)
Q: Which Km (purified protein) does the source give for B1 here?
A: The Km was 1155 (±214.9) μM.
